Laboratory results: patent US8865770B2, “Carbamide peroxide treatments for the reproductive tract” (Vets Plus, Inc., priority 2011, dated 2014)

Experiments:
[1] = test system: cows diagnosed with metritis; test: Clinical trials of intrauterine bolus in cows diagnosed with metritis; assay type: in vivo; conditions: single bolus containing 3.5 grams carbamide peroxide inserted in the uterus
Experimental: Efficacy of carbamide peroxide administration for treating metritis was tested in clinical trials with cows diagnosed with metritis. A single bolus containing 3.5 grams carbamide peroxide was inserted in the uterus of cows showing metritis symptoms such as foul uterine discharge. […] As no antibiotics were required in these cases, no milk had to be discarded. Because no milk was discarded, full financial benefit to the farmer was received for selling more milk than would have occurred if milk had to be discarded due to the presence of antibiotics. […] This indicates the carbamide peroxide administration is safe for use for the long term health of the cow and helps reduce subsequent reproduction failures.

[2] = test system: postpartum cows with retained placenta; test: Clinical trials of intrauterine bolus in cows having retained placenta; assay type: in vivo; conditions: single bolus containing 3.5 grams carbamide peroxide inserted in the uterus
Experimental: Efficacy of carbamide peroxide administration in treating retained placenta was tested in clinical trials with cows having retained placenta. A single bolus containing 3.5 grams carbamide peroxide was inserted in the uterus of postpartum cows with retained placenta.

[3] = test system: cow diagnosed with severe metritis and vaginitis; test: Uterine flush (wash format) in a cow with severe metritis and vaginitis; assay type: in vivo; conditions: two boluses comprising 3.5 g carbamide peroxide dissolved in 1 quart of water, uterus flushed; cow 5 days after calving
Experimental: Efficacy of carbamide peroxide administration in a wash format was tested with a cow diagnosed with severe metritis and vaginitis. A cow that had calved 5 days previously presented a foul smelling uterine discharge. Upon clinical examination, it was discovered that remnants of the placenta were still in the uterus and that the animal was off feed. Antibiotics were not preferred for treatment, as sale of milk from the cow was very important. (Antibiotic residue in milk is not permitted if sale of milk is to occur.) Two boluses comprising 3.5 g carbamide peroxide were dissolved in 1 quart of water, and the uterus of the cow was flushed out with the flush. Within 24-48 hours, the uterine discharge had cleared, the cow was on feed again, and placental remnants were gone. The animal was able to be milked easier than prior to treatment, and the cow was returned to normal service in good health. As no antibiotics were used, the milk was not required to be discarded, and the owner was able to make financial gain from the sale of the milk.

[4] = test system: metritis-causing organisms; test: In vitro killing of bacteria in uterine discharge from a cow with confirmed metritis; assay type: cell-based
Experimental: In vitro testing: One-ml aliquots of uterine discharge from a cow with confirmed metritis were collected and diluted with 1 ml of water. The aliquots were incubated for 30 minutes at 37° C. either in the presence of 7.0% carbamide peroxide (test) or in the absence of carbamide peroxide (control). Bacteria from each treatment were washed and centrifuged, reconstituted in media, and plated on suitable culture media plates. The plates were incubated for three days. […] A similar experiment was conducted using urea in place of carbamide peroxide. The concentration of urea used was 11.3%. This is the equivalent amount of urea found in 4 urea boluses per 16 ounces of water, which is recommended for in vivo treatment using commercially available urea boluses.

Row | SMILES | feed intake during the treatment [1] | need for follow-up with antibiotics [1] | subsequent conception and calving (long-term safety) [1] | uterine discharge (metritis symptom) [1] | foul uterine discharge after treatment [2] | shedding of retained placenta [2] | time until uterine discharge had cleared, cow on feed again, placental remnants gone [3] [h] | bacteria colonies on culture plates after treatment ([4]; 7.0% carbamide peroxide, 30 minutes at 37° C., plates incubated three days, control plates had hundreds of colonies) | bacteria colonies on culture plates after treatment ([4]; 11.3% urea in place of carbamide peroxide, similar experiment)
1 | NC(N)=O.OO [carbamide peroxide] | did not go off feed | No follow-up with antibiotics were required | subsequently conceived safely and had healthy calves | improved and reduced quickly | no foul uterine discharge | The next day, the retained placenta was shed naturally | 24 to 48 | no colonies were found | –
2 | NC(N)=O [urea, reference compound] | – | – | – | – | – | – | – | – | several bacterial colonies still being present
